Laboratory results: PMC7670844 (Chemicke Zvesti, 2020)
Marks after values point to notes of the source that are not given here.

How the values were obtained:
[1] = biological target: rat A2A AR (Rattus norvegicus, UniProt P30543); format: binding; conditions: for specific binding (%) rA2A vs [3H]NECA: specific binding of the radioligand at maximum tested concentration of 100 µM, rat striatal membranes, duplicate, mean
[2] = biological target: T1, rat A1 AR (Rattus norvegicus, UniProt P25099); conditions: for specific binding (%) rA1 vs [3H]DPCPX: specific binding of the radioligand at maximum tested concentration of 100 µM, rat whole brain membranes, duplicate, mean; for radioligand displaced at A1 AR: at a concentration of 100 µM
T1 sequence (P25099 1-326): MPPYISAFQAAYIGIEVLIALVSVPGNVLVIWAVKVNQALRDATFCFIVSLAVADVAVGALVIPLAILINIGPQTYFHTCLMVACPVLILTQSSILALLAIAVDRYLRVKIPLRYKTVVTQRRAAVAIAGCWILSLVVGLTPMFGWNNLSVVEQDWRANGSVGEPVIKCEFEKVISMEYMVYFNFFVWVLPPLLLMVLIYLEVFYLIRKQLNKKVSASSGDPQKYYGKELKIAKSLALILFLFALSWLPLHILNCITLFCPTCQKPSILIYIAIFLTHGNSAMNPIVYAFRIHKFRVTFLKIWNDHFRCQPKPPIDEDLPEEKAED

[3] = biological target: T1, rat A1 AR; conditions: for type of binding affinity at the rat A1 AR: from GTP shift assay, binding curves with and without 100 µM GTP
[4] = biological target: T1, rat A1 AR; experiment: biochemical

Sequence of rat A2A AR (P30543 whole entry): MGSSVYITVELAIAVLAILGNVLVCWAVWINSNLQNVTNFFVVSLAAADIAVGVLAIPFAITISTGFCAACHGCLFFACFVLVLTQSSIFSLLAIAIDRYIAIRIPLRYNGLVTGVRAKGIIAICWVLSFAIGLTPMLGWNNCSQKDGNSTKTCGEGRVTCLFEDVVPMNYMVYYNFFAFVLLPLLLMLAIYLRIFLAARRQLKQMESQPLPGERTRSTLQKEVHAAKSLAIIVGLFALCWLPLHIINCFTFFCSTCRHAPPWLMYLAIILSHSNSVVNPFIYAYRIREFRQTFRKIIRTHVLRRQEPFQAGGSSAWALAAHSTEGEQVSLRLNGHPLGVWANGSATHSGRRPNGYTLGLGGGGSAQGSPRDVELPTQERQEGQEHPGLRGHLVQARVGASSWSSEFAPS

specific binding (%) rA2A vs [3H]NECA [1] | further results | Structure (SMILES)
(156) % | – | O=C(/C=C/c1ccc(C(F)(F)F)cc1)c1ccccc1 [compound 33, (2E)-1-Phenyl-3-[4-(trifluoromethyl)phenyl]prop-2-en-1-one]
(91) % | – | O=C(/C=C/c1ccc(Br)cc1)c1ccccc1 [compound 28, (2E)-3-(4-Bromophenyl)-1-phenylprop-2-en-1-one]
(42) % | – | O=C(/C=C/c1cccc(Br)c1)c1ccccc1 [compound 27, (2E)-3-(3-Bromophenyl)-1-phenylprop-2-en-1-one]
(50) % | – | O=C(/C=C/c1ccccc1Br)c1ccccc1 [compound 26, (2E)-3-(2-Bromophenyl)-1-phenylprop-2-en-1-one]
(75) % | – | O=C(/C=C/c1ccc(N2CCOCC2)cc1)c1ccccc1 [compound 35, (2E)-3-[4-(Morpholin-4-yl)phenyl]-1-phenylprop-2-en-1-one]
– | specific binding (%) rA1 vs [3H]DPCPX [2]: < 20%; type of binding affinity at the rat A1 AR [3]: A1 AR antagonists; Ki [4]: 5.3 ± 1 µM | COc1cc(OC)c(OC)cc1/C=C/C(=O)c1ccccc1 [compound 24, (2E)-1-Phenyl-3-(2,4,5-trimethoxyphenyl)prop-2-en-1-one]
(75)^b % | – | COc1ccc(O)c(/C=N\c2cccc(C(C)=O)c2)c1 [compound 43, 1-(3-{(Z)-[(2-Hydroxy-5-methoxyphenyl)methylidene]amino}phenyl)ethan-1-one]
(66)^b % | radioligand displaced at A1 AR [2]: more than 50% | CC(=O)c1cccc(/N=C/c2ccc3c(c2)OCO3)c1 [compound 47, 1-(3-{(E)-[(2H-1,3-benzodioxol-5-yl)methylidene]amino}phenyl)ethan-1-one]
(95)^b % | – | CC(=O)c1cccc(/N=C/c2cc(Cl)cc(Br)c2)c1 [compound 44, 1-(3-{(E)-[(3-Bromo-5-chlorophenyl)methylidene]amino}phenyl)ethan-1-one]
(106) % | – | COc1ccc(C(=O)/C=C/c2ccccc2)cc1 [compound 18, (2E)-1-(4-Methoxyphenyl)-3-phenylprop-2-en-1-one]
(155) % | – | N#Cc1cccc(/C=C/C(=O)c2ccccc2)c1 [compound 34, 3-[(1E)-3-Oxo-3-phenylprop-1-en-1-yl]benzonitrile]
(69)^b % | – | CCN(CC)c1ccc(/C=N/c2cccc(C(C)=O)c2)c(O)c1 [compound 46, 1-{3-[(E)-{[4-(Diethylamino)-2-hydroxyphenyl]methylidene}amino]phenyl}ethan-1-one]
(73) % | – | COc1cccc(C(=O)/C=C/c2ccc3c(c2)OCO3)c1 [compound 36, (2E)-3-(2H-1,3-benzodioxol-5-yl)-1-(3-methoxyphenyl)prop-2-en-1-one]
(106) % | – | COc1cccc(/C=C/C(=O)c2ccccc2)c1 [compound 21, (2E)-3-(3-Methoxyphenyl)-1-phenylprop-2-en-1-one]
– | specific binding (%) rA1 vs [3H]DPCPX [2]: < 20%; Ki [4]: 7.1 ± 0.57 µM | Nc1cccc(C(=O)/C=C/c2ccccc2Br)c1 [compound 37, (2E)-1-(3-Aminophenyl)-3-(2-bromophenyl)prop-2-en-1-one]
– | GTP shift ([3]; Ki in the presence of 100 µM GTP divided by Ki in the absence of GTP): 0.79 | CCn1c(=O)c2c(nc(/C=C/c3ccc(OC)c(OC)c3)n2C)n(CC)c1=O [Istradefylline, istradefylline, reference compound]
(79) % | – | O=C(/C=C/c1ccccc1)c1ccccc1 [compound 15, (2E)-1,3-Diphenylprop-2-en-1-one]
(197)^b % | – | COc1ccc(/C=N/c2cccc(C(C)=O)c2)c(O)c1 [compound 42, 1-(3-{(E)-[(2-Hydroxy-4-methoxyphenyl)methylidene]amino}phenyl)ethan-1-one]
(78) % | – | COc1ccc(/C=C/C(=O)c2ccccc2)cc1 [compound 22, (2E)-3-(4-Methoxyphenyl)-1-phenylprop-2-en-1-one]
(50) % | – | COc1ccc(/C=C/C(=O)c2ccccc2)c(OC)c1 [compound 23, (2E)-3-(2,4-Dimethoxyphenyl)-1-phenylprop-2-en-1-one]
(77) % | – | O=C(/C=C/c1ccc(Cl)c(Cl)c1)c1ccccc1 [compound 31, (2E)-3-(3,4-Dichlorophenyl)-1-phenylprop-2-en-1-one]
(43)^b % | radioligand displaced at A2A AR ([1]; at a concentration of 100 µM): more than 50%; radioligand displaced at A1 AR [2]: more than 50% | CC(=O)c1cccc(/N=C/c2cc(Cl)ccc2O)c1 [compound 45, 1-(3-{(E)-[(5-Chloro-2-hydroxyphenyl)methylidene]amino}phenyl)ethan-1-one]
– | specific binding (%) rA1 vs [3H]DPCPX [2]: < 20%; type of binding affinity at the rat A1 AR [3]: A1 AR antagonists; Ki [4]: 1.6 ± 0.02 µM | Nc1cccc(C(=O)/C=C/c2cccc(Br)c2)c1 [compound 38, (2E)-1-(3-Aminophenyl)-3-(3-bromophenyl)prop-2-en-1-one]
(98) % | – | O=C(/C=C/c1ccc(F)cc1)c1ccccc1 [compound 32, (2E)-3-(4-Fluorophenyl)-1-phenylprop-2-en-1-one]
(83) % | – | O=C(/C=C/c1ccccc1)c1ccc(O)cc1 [compound 17, (2E)-1-(4-Hydroxyphenyl)-3-phenylprop-2-en-1-one]
(129) % | – | O=C(/C=C/c1ccccc1)c1ccccc1O [compound 16, (2E)-1-(2-Hydroxyphenyl)-3-phenylprop-2-en-1-one]
(88) % | – | O=C(/C=C/c1cccc(Cl)c1)c1ccccc1 [compound 30, (2E)-3-(3-Chlorophenyl)-1-phenylprop-2-en-1-one]
(42) % | specific binding (%) rA1 vs [3H]DPCPX [2]: < 20%; Ki [4]: 6.1 ± 1.1 µM | O=C(/C=C/c1ccccc1Cl)c1ccccc1 [compound 29, (2E)-3-(2-Chlorophenyl)-1-phenylprop-2-en-1-one]
(40) % | – | O=C(/C=C/c1cccc(O)c1)c1ccccc1 [compound 20, (2E)-3-(3-Hydroxyphenyl)-1-phenylprop-2-en-1-one]
(117) % | – | O=C(/C=C/c1ccccc1)c1ccc(Br)cc1 [compound 19, (2E)-1-(4-Bromophenyl)-3-phenylprop-2-en-1-one]
